{"source": "patent US20210032344A1", "about": "“METHODS OF TREATING TUMOR” (Bristol-Myers Squibb Company, priority 2018, published 2021)", "key": {"[1]": {"system": "stage IV or recurrent NSCLC", "assay": "Phase 3 trial, part 1: first-line nivolumab-based regimens vs chemotherapy; efficacy (PFS, ORR, duration of response)", "assay_type": "in vivo, human", "excerpt": "This trial is an open-label, multi-part phase 3 study of first-line nivolumab and nivolumab-based combinations in biomarker-selected NSCLC populations. […] The study continues for the co-primary endpoint of overall survival in PD-L1-selected patients.\nPatients had chemotherapy-naive, stage IV or recurrent NSCLC.\nAdult patients with PD-L1-histologically confirmed squamous or nonsquamous stage IV/recurrent NSCLC and Eastern Cooperative Oncology Group (ECOG) performance status (Oken M. M., et al. Am J Clin Oncol 5:649-55 (1982)) of 0 or 1 who had received no prior systemic anticancer therapy as primary therapy for advanced or metastatic disease were eligible for the study. All patients underwent imaging to screen for brain metastases. Patients with known EGFR mutations or ALK translocations sensitive to targeted therapy, an autoimmune disease, or untreated central nervous system metastases were excluded.\nAll treatments continued until disease progression, unacceptable toxicity, or completion per protocol (up to 2 years for immunotherapy). Crossover between treatment arms within the study was not permitted.\nPart 1 of this study had two co-primary endpoints."}, "[2]": {"system": "patients with stage IV or recurrent NSCLC", "conditions": "in vivo", "excerpt": "Overall response rates (ORR), duration of response, and safety were exploratory endpoints. Adverse events were graded according to the National Cancer Institute Common Terminology Criteria for Adverse Events, version 4.0."}, "[3]": {"conditions": "monotherapy, every two weeks; MTD not reached; cited from earlier work"}}, "data": [{"substance": "nivolumab", "values": [{"measurement": "median PFS", "setting": "[1]; TMB ≥10 mutations/Mb and ≥1% PD-L1 expression", "value": 4.2, "unit": "months"}, {"measurement": "median PFS", "setting": "[1]; TMB ≥13 mutations/Mb and ≥1% PD-L1 expression", "value": 4.2, "unit": "months"}, {"measurement": "PFS hazard ratio (HR), nivolumab vs. chemotherapy", "setting": "[1]; in vivo", "value": 0.95}, {"measurement": "safety / tolerability (in words)", "setting": "[2]", "value": "well tolerated"}, {"measurement": "maximum tolerated dose (MTD)", "setting": "[3]", "value": "> 10", "unit": "mg/kg"}]}]}
